According to patent US8017350B2, “Glimepiride- and insulin-induced glycosylphosphatidylinositol-specific phospholipase C regulation” (Sanofi-Aventis Deutschland GmbH, priority 2004, dated 2011):

Experiments:
Assay type in all cases: biochemical
rat serum GPI-PLD = target: T1, rat serum GPI-PLD (Rattus norvegicus, UniProt Q8R2H5); experiment: GPI-PLD (rat serum) assay, human placental aP substrate; details: FIG. 2; read-out: apparent IC50
T1 construct: GPI-PLD (rat serum) was assayed according to; from tissue; host or cells: rat serum
T1 sequence (Q8R2H5 24-843): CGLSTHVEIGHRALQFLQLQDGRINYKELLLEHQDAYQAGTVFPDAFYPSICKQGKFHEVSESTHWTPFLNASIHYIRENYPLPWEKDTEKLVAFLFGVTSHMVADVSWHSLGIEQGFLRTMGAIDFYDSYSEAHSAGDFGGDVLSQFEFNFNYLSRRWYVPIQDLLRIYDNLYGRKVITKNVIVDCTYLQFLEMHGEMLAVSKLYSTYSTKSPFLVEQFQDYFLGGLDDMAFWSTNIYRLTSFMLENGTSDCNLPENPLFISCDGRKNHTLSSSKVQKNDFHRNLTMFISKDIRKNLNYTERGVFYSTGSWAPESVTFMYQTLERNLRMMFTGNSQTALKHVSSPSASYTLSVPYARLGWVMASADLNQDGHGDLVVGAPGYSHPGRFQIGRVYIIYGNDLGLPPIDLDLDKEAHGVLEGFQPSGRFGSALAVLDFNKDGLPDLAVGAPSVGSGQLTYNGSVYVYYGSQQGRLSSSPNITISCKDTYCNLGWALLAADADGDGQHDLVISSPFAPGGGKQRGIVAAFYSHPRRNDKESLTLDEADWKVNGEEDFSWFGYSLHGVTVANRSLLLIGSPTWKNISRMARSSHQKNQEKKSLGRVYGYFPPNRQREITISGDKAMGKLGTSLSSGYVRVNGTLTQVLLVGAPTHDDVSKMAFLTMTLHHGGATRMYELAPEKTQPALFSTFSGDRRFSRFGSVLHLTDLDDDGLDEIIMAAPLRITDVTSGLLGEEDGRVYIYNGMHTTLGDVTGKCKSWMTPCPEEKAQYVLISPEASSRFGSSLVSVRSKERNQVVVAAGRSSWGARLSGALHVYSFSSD
Protocol: GPI-PLD (rat serum) was assayed according to “Hari et al. (1997) Biochim. Biophys. Acta 1355: 293-302” by incubation with 10 μl of human placental aP solution (100 U/ml in 10 mM Hepes/NaOH, pH 7.0, 150 mM NaCl) in 100 μl of 200 mM Tris/maleate (pH 7.0) and 1% Nonidet P-40 for 10 min at 37° C. and subsequent termination of the reaction by addition of 0.4 ml of ice-cold stop buffer (10 mM Hepes/NaOH, pH 7.0, 150 mM NaCl, 0.1 mM MgCl2 and 0.01 mM zinc acetate). GPI-PLC (T. brucei) was assayed as described in “Mensa-Wilmot et al. (1995) Methods Enzymol. […]
Pelleted hc/lcDIGs (10-50 μg protein) or (G)PI-PLC reaction mixtures (0.5 ml) were separated into amphiphilic and hydrophilic proteins using partitioning between TX-114-enriched and depleted phases according to “Bordier, C., (1981) J. Biol, Chem. […]” by suspending in 1 ml of ice-cold TX-114 (1%), 25 mM Tris/HCl (pH 7.4), 144 mM NaCl or mixing with 0.5 ml of ice-cold TX-114 (2%), respectively. […] After re-extraction of the lower TX-114-enriched phase, aliquots of the pooled upper TX-114-depleted phase were measured for 5′-Nuc, aP and AChE activity or precipitated (15 polyethylene glycol 4000) for SDS-PAGE analysis.
FIG. 2: Potency of GPI-2350. […] The lipolytic activity was calculated as % of the control reaction in the absence of GPI-2350 (set at 100%). […]

[1] = target: phospholipase A2 (honey bee venom) (Apis mellifera, UniProt P00630); details: 50 μM
Sequence of phospholipase A2 (honey bee venom) (P00630 34-167 limits assumed): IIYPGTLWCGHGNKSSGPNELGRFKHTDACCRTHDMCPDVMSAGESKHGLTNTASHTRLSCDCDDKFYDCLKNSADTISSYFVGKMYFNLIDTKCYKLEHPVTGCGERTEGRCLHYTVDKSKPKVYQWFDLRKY

rat adipocyte GPI-PLC = experiment: adipocyte GPI-PLC assay (plasma membranes or hc/lcDIGs, AChE substrate, TX-114 partitioning)
Protocol: GPI-PLD (rat serum) was assayed according to “Hari et al. (1997) Biochim. Biophys. Acta 1355: 293-302” by incubation with 10 μl of human placental aP solution (100 U/ml in 10 mM Hepes/NaOH, pH 7.0, 150 mM NaCl) in 100 μl of 200 mM Tris/maleate (pH 7.0) and 1% Nonidet P-40 for 10 min at 37° C. and subsequent termination of the reaction by addition of 0.4 ml of ice-cold stop buffer (10 mM Hepes/NaOH, pH 7.0, 150 mM NaCl, 0.1 mM MgCl2 and 0.01 mM zinc acetate). GPI-PLC (T. brucei) was assayed as described in “Mensa-Wilmot et al. (1995) Methods Enzymol. 250: 641-655” by incubation with 5 μl of human placental aP solution (see above) in 50 μl of 50 mM Tris/HCl (pH 8.0), 0.25% Nonidet P-40 and 5 mM EDTA for 30 min at 37° C. and subsequent termination of the reaction by addition of 0.45 ml of stop buffer. PI-PLC (B. cereus) and adipocyte GPI-PLC (5-25 μg plasma membranes or hc/lcDIGs) were assayed by incubation with 10 μl of bovine erythrocyte acetylcholinesterase (AChE) solution (12 U/ml in 10 mM Tris/HCl, pH 7.4, 144 mM NaCl, 0.1% TX-100) in 100 μl of 20 mM Hepes/KOH (pH 7.8), 144 mM NaCl, 0.1% TX-100, 0.2 mM MgCl2 for 1 h at 25° C. and subsequent termination by adding 5 μl of glacial acetic acid and then 0.4 ml of 10 mM Tris/HCl (pH 7.4), 144 mM NaCl. Each reaction mixture was subjected to TX-114 partitioning (see below).
Pelleted hc/lcDIGs (10-50 μg protein) or (G)PI-PLC reaction mixtures (0.5 ml) were separated into amphiphilic and hydrophilic proteins using partitioning between TX-114-enriched and depleted phases according to “Bordier, C., (1981) J. Biol, Chem. […]” by suspending in 1 ml of ice-cold TX-114 (1%), 25 mM Tris/HCl (pH 7.4), 144 mM NaCl or mixing with 0.5 ml of ice-cold TX-114 (2%), respectively. After incubation for 1 h on ice, the mixture was layered onto a cushion of 0.4 ml of 0.25 M sucrose and 25 mM Tris/HCl (pH 7.4) on ice. Phase separation was induced by warming up to 37° C. and subsequent centrifugation (10,000×g, 1 min). After re-extraction of the lower TX-114-enriched phase, aliquots of the pooled upper TX-114-depleted phase were measured for 5′-Nuc, aP and AChE activity or precipitated (15 polyethylene glycol 4000) for SDS-PAGE analysis.
Table 1: GPI-PLC of hcDIGs from rat adipocytes, GPI-PLC from T. brucei and PI-PLC from B. cereus were incubated with solubilized and partially purified bovine erythrocyte AChE or human placental aP in the absence or presence of increasing concentrations (0.05 μM-1 mM) of the inhibitors indicated under appropriate conditions (see Materials and Methods). Cleavage rate was calculated from the amount of hydrophilic AChE and aP activity recovered with the TX-114-depleted phase upon TX-114 partitioning. […]

`CCCCCCCCCCCCP1(=O)O[C@@H]2[C@H](O)[C@@H](O)[C@H](O)[C@@H](O)[C@@H]2O1` (stereo partly shown) [GPI-2350, myo-inositol-1,2-cyclo-dodecylphosphonic acid] was tested, and the IC50 (rat serum GPI-PLD) was 1000 nM, the “effect on PLA2” value [1] was “not significantly affected” and the IC50 (rat adipocyte GPI-PLC; GPI-PLC of hcDIGs from rat adipocytes, inhibitor 0.05 μM-1 mM) was 200 to 500 nM. The “lipolytic cleavage of AChE after washout” value (rat adipocyte GPI-PLC; hcDIGs treated with 50 μM, reisolated, extensively washed, incubated without inhibitor) was “only low lipolytic cleavage”.
